Measurements published in the supplement of paper PMC8149375.

Assays:
Settings in all cases: treatment: drug alone; 5 days
[1] = system: SN12C; test: AUC of dose-response viability curve, drug alone (arbitrary (AUC of normalised viability)); higher = less growth inhibition
Method: (§1)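 Primary HTS: 8 RCC cell lines treated with 8 doses (up to 10 uM) of each library drug alone for 5 days; viability read by CellTiter-Glo and normalised to DMSO. GI50 was fitted with XLfit (4-parameter), AUC is the area under the dose-response curve, and minimum viability is the lowest fraction of DMSO viability across doses.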

[2] = system: UO-31; test: as above
Method: as §1

[3] = system: A498; test: as above
Method: as §1

[4] = system: ACHN; test: as above
Method: as §1

[5] = system: CAKI-1; test: as above
Method: as §1

[6] = system: 769-P; test: as above
Method: as §1

[7] = system: 786-O; test: as above
Method: as §1

[8] = system: TK-10; test: as above
Method: as §1

[9] = system: SN12C; test: GI50, drug alone; higher = less potent
Method: as §1

[10] = system: UO-31; test: GI50, drug alone; higher = less potent
Method: as §1

[11] = system: A498; test: GI50, drug alone; higher = less potent
Method: as §1

[12] = system: ACHN; test: GI50, drug alone; higher = less potent
Method: as §1

[13] = system: CAKI-1; test: GI50, drug alone; higher = less potent
Method: as §1

[14] = system: 769-P; test: GI50, drug alone; higher = less potent
Method: as §1

[15] = system: 786-O; test: GI50, drug alone; higher = less potent
Method: as §1

[16] = system: TK-10; test: GI50, drug alone; higher = less potent
Method: as §1

[17] = system: SN12C; test: minimum viability across doses, drug alone, relative to DMSO (fraction); higher = less growth inhibition
Method: as §1

[18] = system: UO-31; test: as above
Method: as §1

[19] = system: A498; test: as above
Method: as §1

[20] = system: ACHN; test: as above
Method: as §1

[21] = system: CAKI-1; test: as above
Method: as §1

[22] = system: 769-P; test: as above
Method: as §1

[23] = system: 786-O; test: as above
Method: as §1

[24] = system: TK-10; test: as above
Method: as §1

| GI50, drug alone [12] [µM] | GI50, drug alone [15] [µM] | SMILES | AUC of dose-response viability curve [1] | AUC of dose-response viability curve [2] | AUC of dose-response viability curve [3] | AUC of dose-response viability curve [4] | AUC of dose-response viability curve [5] | AUC of dose-response viability curve [6] | AUC of dose-response viability curve [7] | AUC of dose-response viability curve [8] | GI50, drug alone [9] [µM] | GI50, drug alone [10] [µM] | GI50, drug alone [11] [µM] | GI50, drug alone [13] [µM] | GI50, drug alone [14] [µM] | GI50, drug alone [16] [µM] | minimum viability across doses [17] | minimum viability across doses [18] | minimum viability across doses [19] | minimum viability across doses [20] | minimum viability across doses [21] | minimum viability across doses [22] | minimum viability across doses [23] | minimum viability across doses [24] |
| --- | --- | --- | --- | --- | --- | --- | --- | --- | --- | --- | --- | --- | --- | --- | --- | --- | --- | --- | --- | --- | --- | --- | --- | --- |
| 7.46 | 9.4 | Cc1ccc(F)c(NC(=O)Nc2ccc(-c3cccc4[nH]nc(N)c34)cc2)c1 [Linifanib (ABT-869)] | 3.28 | 4.69 | 3.32 | 3.34 | 3.49 | 3.21 | 3.03 | 2.99 | 6.98 | > 10 | > 10 | 9.96 | > 10 | 5.72 | 0.242 | 1.08 | 0.672 | 0.279 | 0.497 | 0.503 | 0.472 | 0.309 |
| > 10 | > 10 | C[C@]1(O)C[C@@H](c2nc(-c3ccc4ccc(-c5ccccc5)nc4c3)c3c(N)nccn32)C1 [Linsitinib (OSI-906)] | 3.35 | 4.26 | 4.2 | 3.06 | 2.99 | 3.19 | 2.85 | 2.79 | > 10 | > 10 | > 10 | > 10 | > 10 | > 10 | 0.915 | 0.904 | 0.972 | 0.495 | 0.562 | 0.878 | 0.663 | 0.651 |
| > 10 | > 10 | Cn1cnc(-c2cc3nccc(Oc4ccc(NC(=S)NC(=O)Cc5ccccc5)cc4F)c3s2)c1 [MGCD-265] | 3.45 | 5.1 | 4.09 | 3.43 | 3.59 | 3.46 | 3.29 | 3.44 | > 10 | > 10 | > 10 | > 10 | > 10 | > 10 | 0.674 | 1.01 | 0.977 | 0.76 | 0.635 | 0.898 | 0.785 | 0.938 |
| 0.0672 | 2.53 | Cl.Cl.NC1(c2ccc(-c3nc4ccn5c(=O)[nH]nc5c4cc3-c3ccccc3)cc2)CCC1 [MK-2206 dihydrochloride] | 3.04 | 3.43 | 3.78 | 2.13 | 2.92 | 3.04 | 2.51 | 2.55 | > 10 | 9.92 | > 10 | 5.82 | > 10 | 4.66 | 0.655 | 0.459 | 0.917 | 0.383 | 0.464 | 0.626 | 0.418 | 0.435 |
| 0.854 | 0.0304 | O=C(O)[C@]1(Cc2cccc(Nc3nccs3)n2)CC[C@@H](Oc2cccc(Cl)c2F)CC1 [MK-5108 (VX-689)] | 2.46 | 3.38 | 3.44 | 2.35 | 2.88 | 3.08 | 1.01 | 2.65 | 1.32 | 0.908 | 3.72 | 3.25 | 2.61 | 3.19 | 0.154 | 0.0125 | 0.41 | 0.262 | 0.419 | 0.179 | 0.00733 | 0.404 |
